Reference: US8173843B2, “Amphiphilic derivatives of α-C-phenyl-N-tert-butylnitrone” (TS Pharma, priority 2006, dated 2012)

What was measured:
[1] = system: Sprague-Dawley rat embryo cortex cell cultures; experiment: Hydrogen peroxide-induced apoptotic cell death, viability of cortex cell cultures; format: cell-based; conditions: compound at 10 μM; hydrogen peroxide 50 to 200 μM; preliminary results
Procedure: (§1) The biological tests were carried out according to the procedures described in Journal of Neurochemistry, 2005, 95, 962-973. In order to evaluate the potentialities of these novel derivatives, we measured the ability of compound 10 to reduce and prevent apoptotic cell death phenomena. Hydrogen peroxide is very widely used as an apoptosis inducer in many cell models. Thus, the viability of Sprague-Dawley rat embryo cortex cell cultures is greatly impaired after treatment with hydrogen peroxide at concentrations of 50 to 200 μM. […] These same cultures were also subjected to a mitochondria-selective oxidative stress inducer, doxorubicin (Kotamraju S.; Konorev E. A.; Joseph J.; Kalyanaraman B. J. Biol. Chem. 2000, 275, 33 585-33 592). The observations are the same as for the induction with hydrogen peroxide. […] These preliminary results underline the great ability of compound 10 to prevent apoptosis phenomena induced at varying cell levels. […] A dysfunction of the mitochondrion, the central organelle in the control of apoptosis is involved in a very wide variety of pathological conditions. The anti-apoptotic properties of derivative 10 combined with its incorporation into the mitochondrion make it possible to envision its use in the fields mentioned above.

[2] = system: Sprague-Dawley rat embryo cortex cell cultures; experiment: Doxorubicin (mitochondria-selective oxidative stress inducer)-induced cell death, viability of cortex cell cultures; format: cell-based; conditions: doxorubicin-induced mitochondrial oxidative stress; preliminary results
Procedure: as §1

[3] = oxidative aging tests; Poeggeler et al. 2005; cited from earlier work
[4] = literature; cited from earlier work
gerbils = conditions: after injection in gerbils; Oliver et al. 1990; cited from earlier work

## CCCCCCCC(=O)NCc1ccc(/C=[N+](\[O-])C(C)(C)CNC(=O)C(O)[C@H](O)[C@H](O[C@@H]2OC(CO)[C@H](O)C(O)C2O)C(O)CO)cc1 (stereo partly shown) [Compound 10]
[1]
  restoration of viability of cultures after hydrogen peroxide treatment: completely restore the viability
[2]
  protection against cell death / cell viability under doxorubicin: allows the cell viability to be completely maintained

## CCCCCCCC(=O)NCC(C)(C)[N+]([O-])=Cc1ccc(CNC(=O)[C@H](OC(C)=O)[C@@H](OC(C)=O)[C@H](O[C@@H]2O[C@H](COC(C)=O)[C@H](OC(C)=O)[C@H](OC(C)=O)[C@H]2OC(C)=O)[C@@H](COC(C)=O)OC(C)=O)cc1 [LPBNAH, N-[4-(octa-O-acetyllactobionamidomethylene)benzylidene]-N-[1,1-dimethyl-2-(N-octanoyl)amido]ethylamine N-oxide]
[3]
  biological activity compared with PBN: biological activity greater than that of PBN

## CC(C)(C)[N+]([O-])=Cc1ccc(S(=O)(=O)[O-])cc1S(=O)(=O)[O-].[Na+].[Na+] [NXY-059]
[4]
  neuroprotective activity compared with PBN: neuroprotective activity greater than PBN

## CC(C)(C)[N+]([O-])=Cc1ccccc1 [PBN, α-C-phenyl-N-tert-butylnitrone]
[1]
  restoration of viability of cultures after hydrogen peroxide treatment: very incompletely restore the viability
[2]
  protection against cell death / cell viability under doxorubicin: only a partial protection against cell death
gerbils
  damage caused by cerebral ischemia: decrease in the damage caused by cerebral ischemia
